The subject of this assay is PDE11A4/CyaB1-chimera. Briefly: Adenylate cyclase activity assay of PDE11A4/CyaB1-chimera (conversion of [α-32P]-ATP to cAMP). Type of assay: biochemical, human.

The structures appear in SMILES notation. “Also recorded” adds a separate entry of the source.

Turning to `Nc1nc2c(ncn2[C@@H]2O[C@@H]3COP(=O)(O)O[C@H]3[C@H]2O)c(=O)[nH]1` [cGMP], the “% basal value” (1 mM of cyclic nucleotide, relative to basal enzyme activity) came to 400%. In addition, the “Classification as PDE11A4-GAF agonist / antagonist” value (from dose-effect curve, FIG. 5) is “PDE11A4-GAF agonist; also recorded: selectively activates the GAF domain of PDE11 as agonist”.

(Values after US20090298108A1, “Method for Identifying PDE11 Modulators” (priority 2005, published 2009).)
